From PubChem BioAssay AID248 (DTP/NCI, 2004)
Where “and” joins values, the source holds several entries; their conditions need not be identical. Equal values may be shown once. Toxic doses and inconclusive results are not listed. Cut-off read from the data, not from the text of the source: active = T/C of 150% or more; inactive = T/C below 125%.

System: L1210 leukemia ip in BDF1 mice, survival T/C
Assay: NCI In Vivo Anticancer Drug Screen. Data for tumor model L1210 Leukemia (intraperitoneal) in B6D2F1 (BDF1) mice
Conditions: endpoint: mean survival time, higher = longer survival
Outline: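 Tumor cells were implanted, animals were treated, and survival was followed. The result divides the treated measurement by the vehicle-control measurement.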

[1] = dose: 25.0 mg/kg/injection, schedule: Q01DX009 (ip), vehicle: Klucel (hydroxypropylcellulose) (HPC)
[2] = dose: 25.0 mg/kg/injection, schedule: Q01DX009 (ip), vehicle: saline
[3] = dose: 50.0 mg/kg/injection, schedule: Q01DX009 (ip), vehicle: Klucel (hydroxypropylcellulose) (HPC)
[4] = dose: 200.0 mg/kg/injection, schedule: Q01DX001 (ip), vehicle: saline
[5] = dose: 100.0 mg/kg/injection, schedule: Q04DX003 (ip), vehicle: Klucel (hydroxypropylcellulose) (HPC)
[6] = dose: 200.0 mg/kg/injection, schedule: Q04DX003 (ip), vehicle: Klucel (hydroxypropylcellulose) (HPC)
[7] = dose: 400.0 mg/kg/injection, schedule: Q04DX003 (ip), vehicle: Klucel (hydroxypropylcellulose) (HPC)
[8] = dose: 100.0 mg/kg/injection, schedule: Q01DX001 (ip), vehicle: saline
[9] = dose: 400.0 mg/kg/injection, schedule: Q01DX001 (ip), vehicle: saline
[10] = dose: 100.0 mg/kg/injection, schedule: Q01DX009 (ip), vehicle: saline
[11] = dose: 100.0 mg/kg/injection, schedule: Q04DX003 (ip), vehicle: saline
[12] = dose: 200.0 mg/kg/injection, schedule: Q01DX009 (ip), vehicle: saline
[13] = dose: 200.0 mg/kg/injection, schedule: Q04DX003 (ip), vehicle: saline
[14] = dose: 50.0 mg/kg/injection, schedule: Q01DX001 (ip), vehicle: saline
[15] = dose: 50.0 mg/kg/injection, schedule: Q04DX003 (ip), vehicle: saline

Measured: T/C

Clc1ccc(C(c2ccc(Cl)cc2)C(Cl)(Cl)Cl)cc1
inactive: dose: 12.0 mg/kg/injection, schedule: Q01DX009 (ip), vehicle: saline 95 % of control | dose: 12.5 mg/kg/injection, schedule: Q01DX009 (ip), vehicle: acetone 97 % of control | [1] 90 % of control | dose: 25.0 mg/kg/injection, schedule: Q01DX009 (ip), vehicle: acetone 93 % of control | [2] 92 % of control | [3] 92 % of control | dose: 50.0 mg/kg/injection, schedule: Q01DX009 (ip), vehicle: acetone 100 % of control and 86 % of control | dose: 100.0 mg/kg/injection, schedule: Q01DX001 (ip), vehicle: acetone 93 % of control | dose: 100.0 mg/kg/injection, schedule: Q01DX009 (ip), vehicle: acetone 94 % of control | dose: 200.0 mg/kg/injection, schedule: Q01DX001 (ip), vehicle: acetone 87 % of control | [4] 90 % of control | dose: 200.0 mg/kg/injection, schedule: Q01DX009 (ip), vehicle: acetone 97 % of control | dose: 400.0 mg/kg/injection, schedule: Q01DX001 (ip), vehicle: acetone 92 % of control | dose: 800.0 mg/kg/injection, schedule: Q01DX001 (ip), vehicle: acetone 88 % of control | dose: 800.0 mg/kg/injection, schedule: Q01DX001 (ip), vehicle: saline 87 % of control

NC(=S)Nc1c(Cl)cc(Cl)cc1Cl
inactive: [1] 94 % of control | [3] 108 % of control | dose: 100.0 mg/kg/injection, schedule: Q01DX009 (ip), vehicle: Klucel (hydroxypropylcellulose) (HPC) 94 % of control and 107 % of control

COc1cc(-c2nc3c4ccccc4c4ccccc4c3[nH]2)cc(OC)c1OC
inactive: [5] 94 % of control | [6] 96 % of control | [7] 105 % of control

O=C(O)CSCc1cccc2ccccc12
inactive: dose: 100.0 mg/kg/injection, schedule: Q01DX001 (ip), vehicle: carboxymethylcellulose (CMC) 91 % of control | [5] 98 % of control | dose: 200.0 mg/kg/injection, schedule: Q01DX001 (ip), vehicle: carboxymethylcellulose (CMC) 93 % of control | [6] 94 % of control | dose: 400.0 mg/kg/injection, schedule: Q01DX001 (ip), vehicle: carboxymethylcellulose (CMC) 91 % of control | [7] 105 % of control

CN(C)c1n[nH]c(=O)[nH]c1=O
inactive: [8] 91 % of control | [4] 114 % of control | [9] 93 % of control

COc1ccc(C(C)=O)c(O)c1C
inactive: dose: 100.0 mg/kg/injection, schedule: Q01DX009 (ip), vehicle: saline with Tween-80 111 % of control | dose: 200.0 mg/kg/injection, schedule: Q01DX009 (ip), vehicle: saline with Tween-80 94 % of control | dose: 400.0 mg/kg/injection, schedule: Q01DX009 (ip), vehicle: saline with Tween-80 92 % of control

Nc1nc(N)c2cc(CNc3ccc(Cl)c(C(=O)NC(CC(=O)O)C(=O)O)c3)cnc2n1 (stereo unspecified)
inactive: [10] 95 % of control | [11] 106 % of control | [12] 94 % of control | [13] 93 % of control | dose: 400.0 mg/kg/injection, schedule: Q01DX009 (ip), vehicle: saline 89 % of control | dose: 400.0 mg/kg/injection, schedule: Q04DX003 (ip), vehicle: saline 97 % of control

Cn1cc2c(=O)n(O)c(=O)[nH]c2n1
inactive: [14] 106 % of control | [8] 100 % of control | [4] 102 % of control | [9] 102 % of control

Cc1ccccc1-n1c(C)cc(=O)c(C(=O)Cl)c1C
inactive: dose: 25.0 mg/kg/injection, schedule: Q04DX003 (ip), vehicle: Klucel (hydroxypropylcellulose) (HPC) 95 % of control | dose: 50.0 mg/kg/injection, schedule: Q04DX003 (ip), vehicle: Klucel (hydroxypropylcellulose) (HPC) 95 % of control | dose: 75.0 mg/kg/injection, schedule: Q04DX003 (ip), vehicle: Klucel (hydroxypropylcellulose) (HPC) 97 % of control | [5] 103 % of control | [6] 110 % of control

CCC(C(=O)OC)C1CCN(C)C(=O)C12CO2 (stereo unspecified)
inactive: dose: 25.0 mg/kg/injection, schedule: Q01DX001 (ip), vehicle: saline 93 % of control | dose: 25.0 mg/kg/injection, schedule: Q04DX003 (ip), vehicle: saline 95 % of control | dose: 25.0 mg/kg/injection, schedule: Q04DX003 (oral), vehicle: saline 100 % of control | [14] 104 % of control | [15] 95 % of control | dose: 50.0 mg/kg/injection, schedule: Q04DX003 (oral), vehicle: saline 98 % of control | [8] 97 % of control | [11] 97 % of control | dose: 100.0 mg/kg/injection, schedule: Q04DX003 (oral), vehicle: saline 96 % of control | [4] 103 % of control | [13] 97 % of control | dose: 200.0 mg/kg/injection, schedule: Q04DX003 (oral), vehicle: saline 107 % of control

CC1(C)CC(=O)C2=C(C1)Nc1ccc(Cl)cc1NC2c1cccc([N+](=O)[O-])c1 (stereo unspecified)
inactive: dose: 100.0 mg/kg/injection, schedule: Q04DX002 (ip), vehicle: Klucel (hydroxypropylcellulose) (HPC) 98 % of control | dose: 200.0 mg/kg/injection, schedule: Q04DX002 (ip), vehicle: Klucel (hydroxypropylcellulose) (HPC) 105 % of control | dose: 400.0 mg/kg/injection, schedule: Q04DX002 (ip), vehicle: Klucel (hydroxypropylcellulose) (HPC) 102 % of control

CCc1ccccc1N1CCN(C(=O)c2cc(OC)c(OC)c(OC)c2)CC1
inactive: [2] 100 % of control | dose: 50.0 mg/kg/injection, schedule: Q01DX009 (ip), vehicle: saline 102 % of control and 105 % of control | dose: 50.0 mg/kg/injection, schedule: Q01DX Z (ip), vehicle: carboxymethylcellulose (CMC) 104 % of control | dose: 50.0 mg/kg/injection, schedule: Q04DX003 (ip), vehicle: acetone 98 % of control | [15] 94 % of control | dose: 74.0 mg/kg/injection, schedule: Q01DX009 (ip), vehicle: saline 100 % of control | dose: 74.0 mg/kg/injection, schedule: Q01DX Z (ip), vehicle: carboxymethylcellulose (CMC) 107 % of control | dose: 74.0 mg/kg/injection, schedule: Q04DX003 (ip), vehicle: saline 92 % of control | [8] 100 % of control | [10] 114 % of control | dose: 100.0 mg/kg/injection, schedule: Q04DX003 (ip), vehicle: acetone 97 % of control | dose: 112.0 mg/kg/injection, schedule: Q01DX009 (ip), vehicle: saline 97 % of control | dose: 112.0 mg/kg/injection, schedule: Q01DX Z (ip), vehicle: carboxymethylcellulose (CMC) 102 % of control | dose: 112.0 mg/kg/injection, schedule: Q04DX003 (ip), vehicle: saline 99 % of control | dose: 168.0 mg/kg/injection, schedule: Q01DX009 (ip), vehicle: saline 108 % of control | dose: 168.0 mg/kg/injection, schedule: Q04DX003 (ip), vehicle: saline 97 % of control and 99 % of control | [4] 103 % of control | [12] 100 % of control | [13] 103 % of control | dose: 225.0 mg/kg/injection, schedule: Q01DX009 (ip), vehicle: saline 97 % of control | dose: 250.0 mg/kg/injection, schedule: Q04DX003 (ip), vehicle: saline 103 % of control

O=C(c1ccccc1)C(O)(CCP(=O)(c1ccccc1)c1ccccc1)c1ccccc1 (stereo unspecified)
inactive: dose: 75.0 mg/kg/injection, schedule: Q01DX001 (ip), vehicle: carboxymethylcellulose (CMC) 88 % of control | dose: 150.0 mg/kg/injection, schedule: Q01DX001 (ip), vehicle: carboxymethylcellulose (CMC) 96 % of control
